Data set [1] can be described thus: Unspecified toxicity, intravenous injection in mice. In kind it is in vivo. The note with it: Example 22: 37 mg per mouse i.v. The procedure: Unspecified toxicity was tested on four mice by first weighing the animals, and then injecting the animals intravenously with 0.5 ml of an emulsion of 4-methyl-3-oxo-pentanoic acid having a concentration of 50 mg/ml for 10 minutes. Each mouse received a dosage of 25 mg. The emulsion was prepared aseptically, by emulsifying sterile-filtered ester with a sterilized dispersion of egg-yolk phospholipids. […] The increase in weight of the animals was normal during the observation period (weight increase: X=4.5 g, S.D. 0.5).
The unspecific toxicity was tested on 5 mice by first weighing the animals, and then injecting intravenously 0.5 ml of an emulsion of 4-methy-3-oxo-pentanoic acid ethyl ester having a concentration of 5 mg/ml for 15 seconds. The emulsion was aseptically prepared, by emulsifying sterile-filtered ester with a sterilized dispersion of egg-yolk phospholipids. […] Each mouse received a total dosage of 2.5 mg.
Unspecified toxicity was tested on four mice by first weighing the animals, and then injecting intravenously 0.2 ml of an emulsion of 4-methyl-3-oxo-pentanoic acid ethyl ester having a concentration of 33 mg/ml for 30 seconds. Each mouse received a dosage of 6.7 mg. The emulsion was prepared aseptically, by emulsifying sterile-filtered ester with a sterilized dispersion of egg-yolk phospholipids. […]

The subject of data set [2] is Staphylococcus epidermidis 61540-51. The experiment in a line: Microorganism count in 2% solutions of sodium salts (Example 19). The class given is cell-based. The settings on record: 2% solution, pH about 7, +37°C. The protocol: (§1) Staphylococcus epidermidis 61540-51 and Escherichia coli ATTC 8739 were each added to a respective solution in a concentration of about 3000-10 000/ml. These samples were then incubated at +37°C for 20 hours. A microorganism count was carried out after 2 and 20 hours, in a manner described in microbiological literature. Parallel with the aforesaid tests, a control was run in pure phosphate buffer and in Tryptone soya broth (TSB) with additions of Staphylococcus epidermidis 61540-51 and Escherichia coli ATTC 8739 respectively, to ascertain the viability of the microorganisms to survive, i.e. the ability of the microorganisms to grow under the ideal conditions provided. After 2 hours, the number of organisms/ml of type Staphylococcus epidermidis in the phosphate solution was 4300 and after 20 hours 1. Growth could be established in TSB after 20 hours. […] This was also the case with the sodium salt of 2 percent 5-methyl-3-oxo-hexanoic acid ethyl ester. After 2 hours, the microorganism count of Escherichia coli in the phosphate solution was 3400, and after 20 hours 7400. Growth was established in TSB after 20 hours. In the solution containing 2% sodium salt of 4-methyl-3-oxo-pentanoic acid ethyl ester, the organism count was 2000 after 2 hours and 0 after 20 hours. With respect to the sodium salt of 5-methyl-3-oxo-hexanoic acid ethyl ester, the organism count was 44 after 2 hours and 0 after 20 hours.

Data set [3] relates to Escherichia coli ATTC 8739. Described as above. The class given is cell-based. The settings on record: 2% solution, pH about 7, +37°C. The protocol:
as §1

A further data set concerns E. coli. The experiment in a line: Microorganism count in emulsions diluted to 2% (Example 20, Table 2). In kind it is cell-based. The settings on record: emulsion diluted to 2% with PBS pH=7.00, +37°C.
Where [4] appears, read: after 2 hours, inoculum about 3000-10 000/ml.

Marks after values point to notes of the source that are not given here.

With `CCOC(=O)CC(=O)CC(C)C.[Na]` [sodium salt of 5-methyl-3-oxo-hexanoic acid ethyl ester], the “time after completing the injection until return to normal” value in data set [1] turned out to be 1 min. In addition, the “weight development over the following 7 days” value in data set [1] is “normal weight development”. Moreover, the number of organisms entry in data set [2] (setting [4]) and in data set [2] (after 20 hours) was “No organisms were found” each time. Further, the organism count in data set [3] (setting [4]) is reported as 44; in data set [3] (after 20 hours), 0.
For `CCOC(=O)CC(=O)C(C)C.[Na]` [sodium salt of 4-methyl-3-oxo-pentanoic acid ethyl ester], the number of organisms result in data set [2] (setting [4]) and in data set [2] (after 20 hours) was “No organisms were found” in each case. Also, the figures for the organism count in data set [3] (setting [4]) and in data set [3] (after 20 hours) were 2000 and 0, respectively.
For `CCOC(=O)C(=O)C(C)C` [Ethyl-3-methyl-2-oxo-butyrate], the number of microorganisms is listed as 0* with E. coli (0 hr), 0 with E. coli (2 hrs) and 0 in the data set with E. coli (20 hrs).
Consider `CCOC(=O)C(C)=O` [Ethyl-pyruvate], for which the number of microorganisms in the data set with E. coli (0 hr) is recorded as 0*; in the data set on E. coli (2 hrs), 0; in the data set with E. coli (20 hrs) it was 0.

For the origin of these results see EP0366632A1, “Alternative energy substrates” (priority 1988, dated 1990).
